Values of other authors, collected in US20120259389A1, “TREATMENT OF POSTPRANDIAL HYPERGLYCEMIA BY GASTRIC ELECTRICAL STIMULATION” (priority 2009, published 2012).

Tested on: ZDF rats
Settings: Type II diabetic ZDF rats; 300 mg/kg/day for 28 days; reported by Uhles et al. 2009

Compound: CN(C)C(=N)N=C(N)N [Metformin]
- reduction in mean change in blood glucose AUC: 21%
